Values quoted from earlier work, collected in PMC2821159 (Bioorganic & medicinal chemistry, 2009).

System: protein kinases

CNc1ncnc2c1c(-c1cccc(O)c1)cn2C(C)C [Compound 4, 3-(7-isopropyl-4-(methylamino)-7H-pyrrolo[2,3-d]pyrimidin-5yl)phenol]
inhibition against protein kinases: poor inhibition
